Reference: the CheMixHub viscosity set
± gives the uncertainty stated by the source.

Test: xn = mol fraction of the nth substance listed

CC(C)=O + c1ccccc1
Conditions	viscosity [mPa·s]
293.15 K, 101 kPa, x1 = 0.086	0.598 ± 0.012
293.15 K, 101 kPa, x1 = 0.1	0.592 ± 0.012
293.15 K, 101 kPa, x1 = 0.1304	0.581 ± 0.015
293.15 K, 101 kPa, x1 = 0.248	0.535 ± 0.011
293.15 K, 101 kPa, x1 = 0.269	0.528 ± 0.011
293.15 K, 101 kPa, x1 = 0.287	0.513 ± 0.013
293.15 K, 101 kPa, x1 = 0.4005	0.47 ± 0.012
293.15 K, 101 kPa, x1 = 0.408	0.471 ± 0.01
293.15 K, 101 kPa, x1 = 0.5661	0.416 ± 0.011
293.15 K, 101 kPa, x1 = 0.587	0.414 ± 0.009
293.15 K, 101 kPa, x1 = 0.6783	0.385 ± 0.01
293.15 K, 101 kPa, x1 = 0.767	0.376 ± 0.008
293.15 K, 101 kPa, x1 = 0.7899	0.357 ± 0.009
293.15 K, 101 kPa, x1 = 0.864	0.362 ± 0.008
293.15 K, 101 kPa, x1 = 0.9053	0.332 ± 0.009
293.16 K, 101 kPa, x1 = 0.1304	0.581 ± 0.016
293.16 K, 101 kPa, x1 = 0.287	0.513 ± 0.014
293.16 K, 101 kPa, x1 = 0.4005	0.47 ± 0.013
293.16 K, 101 kPa, x1 = 0.5661	0.416 ± 0.011
293.16 K, 101 kPa, x1 = 0.6783	0.385 ± 0.01
293.16 K, 101 kPa, x1 = 0.7899	0.357 ± 0.01
293.16 K, 101 kPa, x1 = 0.9053	0.332 ± 0.009
298.15 K, 101 kPa, x1 = 0.092	0.5569 ± 0.0057
298.15 K, 101 kPa, x1 = 0.1304	0.534 ± 0.014
298.15 K, 101 kPa, x1 = 0.1895	0.5185 ± 0.0053
298.15 K, 101 kPa, x1 = 0.2364	0.4968 ± 0.0051
298.15 K, 101 kPa, x1 = 0.287	0.484 ± 0.013
298.15 K, 101 kPa, x1 = 0.2986	0.4766 ± 0.005
298.15 K, 101 kPa, x1 = 0.3321	0.4654 ± 0.0049
298.15 K, 101 kPa, x1 = 0.4005	0.446 ± 0.012
298.15 K, 101 kPa, x1 = 0.4076	0.4368 ± 0.0046
298.15 K, 101 kPa, x1 = 0.4692	0.4188 ± 0.0045
298.15 K, 101 kPa, x1 = 0.49	0.4158 ± 0.0044
298.15 K, 101 kPa, x1 = 0.5552	0.3985 ± 0.0043
298.15 K, 101 kPa, x1 = 0.5608	0.3975 ± 0.0043
298.15 K, 101 kPa, x1 = 0.5661	0.401 ± 0.01
298.15 K, 101 kPa, x1 = 0.6629	0.3692 ± 0.004
298.15 K, 101 kPa, x1 = 0.6783	0.375 ± 0.01
298.15 K, 101 kPa, x1 = 0.7262	0.3546 ± 0.0039
298.15 K, 101 kPa, x1 = 0.7691	0.3451 ± 0.0038
298.15 K, 101 kPa, x1 = 0.7899	0.351 ± 0.009
298.15 K, 101 kPa, x1 = 0.808	0.3384 ± 0.0038
298.15 K, 101 kPa, x1 = 0.8946	0.3203 ± 0.0036
298.15 K, 101 kPa, x1 = 0.9053	0.33 ± 0.009
298.16 K, 101 kPa, x1 = 0.1304	0.534 ± 0.014
298.16 K, 101 kPa, x1 = 0.287	0.484 ± 0.013
298.16 K, 101 kPa, x1 = 0.4005	0.446 ± 0.012
298.16 K, 101 kPa, x1 = 0.5661	0.401 ± 0.011
298.16 K, 101 kPa, x1 = 0.6783	0.375 ± 0.01
298.16 K, 101 kPa, x1 = 0.7899	0.351 ± 0.009
298.16 K, 101 kPa, x1 = 0.9053	0.33 ± 0.009
303.15 K, 101 kPa, x1 = 0.086	0.523 ± 0.011
303.15 K, 101 kPa, x1 = 0.1	0.518 ± 0.011
303.15 K, 101 kPa, x1 = 0.248	0.475 ± 0.01
303.15 K, 101 kPa, x1 = 0.269	0.469 ± 0.01
303.15 K, 101 kPa, x1 = 0.2875	0.456 ± 0.012
303.15 K, 101 kPa, x1 = 0.408	0.423 ± 0.009
303.15 K, 101 kPa, x1 = 0.4185	0.417 ± 0.011
303.15 K, 101 kPa, x1 = 0.5098	0.392 ± 0.01
303.15 K, 101 kPa, x1 = 0.5498	0.382 ± 0.01
303.15 K, 101 kPa, x1 = 0.587	0.375 ± 0.008
303.15 K, 101 kPa, x1 = 0.6652	0.356 ± 0.009
303.15 K, 101 kPa, x1 = 0.767	0.346 ± 0.008
303.15 K, 101 kPa, x1 = 0.7851	0.331 ± 0.009
303.15 K, 101 kPa, x1 = 0.864	0.332 ± 0.007
303.15 K, 101 kPa, x1 = 0.8895	0.312 ± 0.008
303.16 K, 101 kPa, x1 = 0.2875	0.456 ± 0.012
303.16 K, 101 kPa, x1 = 0.4185	0.417 ± 0.011
303.16 K, 101 kPa, x1 = 0.5098	0.392 ± 0.011
303.16 K, 101 kPa, x1 = 0.5498	0.382 ± 0.01
303.16 K, 101 kPa, x1 = 0.6652	0.356 ± 0.01
303.16 K, 101 kPa, x1 = 0.7851	0.331 ± 0.009
303.16 K, 101 kPa, x1 = 0.8895	0.312 ± 0.008
307.35 K, 101.33 kPa, x1 = 0.1115	0.492 ± 0.0092
307.35 K, 101.33 kPa, x1 = 0.3573	0.419 ± 0.0086
307.35 K, 101.33 kPa, x1 = 0.4938	0.382 ± 0.0083
307.35 K, 101.33 kPa, x1 = 0.5562	0.374 ± 0.0082
307.35 K, 101.33 kPa, x1 = 0.6464	0.352 ± 0.008
307.35 K, 101.33 kPa, x1 = 0.8853	0.308 ± 0.0077
313.15 K, 101 kPa, x1 = 0.086	0.464 ± 0.01
313.15 K, 101 kPa, x1 = 0.1	0.46 ± 0.01
313.15 K, 101 kPa, x1 = 0.248	0.424 ± 0.009
313.15 K, 101 kPa, x1 = 0.269	0.419 ± 0.009
313.15 K, 101 kPa, x1 = 0.408	0.378 ± 0.008
313.15 K, 101 kPa, x1 = 0.587	0.344 ± 0.008
313.15 K, 101 kPa, x1 = 0.767	0.32 ± 0.007
313.15 K, 101 kPa, x1 = 0.864	0.309 ± 0.007
323.15 K, 101 kPa, x1 = 0.086	0.436 ± 0.009
323.15 K, 101 kPa, x1 = 0.1	0.436 ± 0.009
323.15 K, 101 kPa, x1 = 0.248	0.404 ± 0.009
323.15 K, 101 kPa, x1 = 0.269	0.4 ± 0.009
323.15 K, 101 kPa, x1 = 0.408	0.361 ± 0.008
323.15 K, 101 kPa, x1 = 0.587	0.33 ± 0.007
323.15 K, 101 kPa, x1 = 0.767	0.309 ± 0.007
